These results are taken from patent publication US10577395B2 (priority 2014, dated 2020).

Assay [1] has as its system Enterococcus faecium (VanA VRE, ATCC BAA-2317). Briefly: Antimicrobial assay, MIC, VanA E. faecium. It is filed as cell-based. Conditions: for MIC: Enterococcus faecium. Here is the method: (§1) Assays were carried out following the methods of Clinical and Laboratory Standards Institute; Methods for Dilution Antimicrobial Susceptibility Tests for Bacteria That Grow Aerobically; Approved Standard, […].; CLSI document M07-A8; Clinical and Laboratory Standards Institute: Wayne, Pa., 2009.
(§2) This diluted bacterial stock solution was then inoculated into a well of a V-shaped 96-well glass coated microtiter plate, supplemented with serial diluted aliquots of the antibiotic solution DMSO (4 μL), to achieve a total assay volume of 0.1 mL. The plate was then incubated at 37° C. for 18 hours, after which minimal inhibitory concentrations (MICs) were determined by monitoring the cell growth (observed as a pellet) in the wells. The lowest concentration of antibiotic (in μg/mL) capable of eliminating the cell growth in the wells is reported as the MIC.

Assay [2] concerns vancomycin-resistant Enterococcus faecalis (VanA VRE, BM4166). The experiment in a line: microbe, parasite or virus in culture. As to conditions: for MIC: Enterococcus faecalis, VRE. It counts as cell-based. As for the experimental part: as §1, §2
The subject of assay [3] is vancomycin-sensitive Staphylococcus aureus (VSSA strain ATCC 25923). The experiment in a line: Antimicrobial assay, MIC, vancomycin-sensitive S. aureus. It is filed as cell-based. Conditions: ATCC 25923; for MIC: Staphylococcus aureus, ATCC25923, read-out: MIC, sensitive S. aureus. As for the experimental part:
as §1, §2

Assay [4] deals with methicillin and oxacillin-resistant Staphylococcus aureus subsp. aureus (MRSA strain ATCC 43300). The experiment in a line: Antimicrobial assay, MIC, MRSA. It counts as cell-based. As to conditions: for MIC: Staphylococcus aureus, read-out: MIC, MRSA S. aureus. As for the experimental part: as §1, §2
Assay [5] concerns vancomycin-resistant Enterococcus faecalis (VanB VRE, strain ATCC 51299). The experiment in a line: microbe, parasite or virus in culture. As to conditions: for MIC: Enterococcus faecalis, read-out: MIC, VanB E. faecalis. It is filed as cell-based. Here is the method:
as §1, §2

Another assay concerns VanA VRE. Briefly: Antimicrobial assay, MIC for VanA VRE. It is filed as cell-based, E. faecalis and E. faecium. Here is the method: as §1, §2
Where [6] appears, read: read-out: MIC, Van A E. faecium, serum concentration 10%.
[7] abbreviates: read-out: MIC, Van A E. faecium, serum concentration 25%.
Setting [8] is: read-out: MIC, Van A E. faecium, serum concentration 100%.
Setting [9] is: read-out: MIC, Van A E. faecalis, serum concentration 10%.
Setting [10] is: read-out: MIC, Van A E. faecalis, serum concentration 25%.
Where [11] appears, read: read-out: MIC, Van A E. faecalis, serum concentration 100%.
The mark [12] stands for this setting: read-out: MIC, VanA E. faecalis.

In brackets after ≈: the same amount, converted by molar mass. Read-outs that look alike come from different tables or passages of the source. A value given as a limit tells only on which side of the number the result lay.

With `CN[C@H](CC(C)C)C(=O)N[C@H]1C(=O)N[C@@H](CC(N)=O)C(=O)N[C@H]2C(=N)NC3C(=O)N[C@H](C(=O)N[C@H](C(=O)O)c4cc(O)cc(O)c4-c4cc3ccc4O)[C@H](O)c3ccc(c(Cl)c3)Oc3cc2cc(c3OC2OC(CO)C(O)[C@H](O)[C@@H]2O[C@H]2CC(C)(N)[C@H](O)[C@H](C)O2)Oc2ccc(cc2Cl)[C@H]1O` (stereo partly shown) [Compound 3, [Ψ[C(═NH)NH]Tpg^4]vancomycin], the MIC in assay [1] (setting [6]) is 0.5 µg/mL (≈ 0.345 µM); in assay [1] (setting [7]), 4 µg/mL (≈ 2.76 µM); in assay [1] (setting [8]) it was more than 32 µg/mL; in assay [1] (read-out: MIC, VanA E. faecium), 0.5 µg/mL (≈ 0.345 µM); in assay [2] (setting [9]), 0.5 µg/mL (≈ 0.345 µM); in assay [2] (setting [10]), 8 µg/mL (≈ 5.52 µM). The MIC in assay [2] (setting [11]) was more than 32 µg/mL; in assay [2] (setting [12]) it was 0.5 µg/mL (≈ 0.345 µM).
On to `CN[C@H](CC(C)C)C(=O)N[C@H]1C(=O)N[C@@H](CC(N)=O)C(=O)N[C@H]2CNC3C(=O)N[C@H](C(=O)N[C@H](C(=O)O)c4cc(O)cc(O)c4-c4cc3ccc4O)[C@H](O)c3ccc(c(Cl)c3)Oc3cc2cc(c3OC2OC(CO)C(O)[C@H](O)[C@@H]2O[C@H]2CC(C)(N)[C@H](O)[C@H](C)O2)Oc2ccc(cc2Cl)[C@H]1O` (stereo partly shown) [Compound 16, [Ψ[CH2NH]Tpg^4]vancomycin], for which the MIC in assay [1] (setting [6]) is 31 µg/mL (≈ 21.6 µM); in assay [1] (setting [7]), 62 µg/mL (≈ 43.2 µM); in assay [1] (setting [8]), 125 µg/mL (≈ 87.1 µM); in assay [1] (read-out: MIC, VanA E. faecium), 31 µg/mL (≈ 21.6 µM); in assay [2] (setting [9]), 31 µg/mL (≈ 21.6 µM); in assay [2] (setting [10]), 62 µg/mL (≈ 43.2 µM). In addition, the MIC came out at 125 µg/mL (≈ 87.1 µM) in assay [2] (setting [11]) and 31 µg/mL (≈ 21.6 µM) in assay [2] (setting [12]).
With `CN[C@H](CC(C)C)C(=O)N[C@H]1C(=O)N[C@@H](CC(N)=O)C(=O)N[C@H]2C(=O)NC3C(=O)N[C@H](C(=O)N[C@H](CO)c4cc(O)cc(O)c4-c4cc3ccc4O)[C@H](O)c3ccc(c(Cl)c3)Oc3cc2cc(c3OC2OC(CO)C(O)[C@H](O)[C@@H]2O[C@H]2CC(C)(N)[C@H](O)[C@H](C)O2)Oc2ccc(cc2Cl)[C@H]1O` (stereo partly shown) [Compound 23, hydroxymethylvancomycin, reference compound], in assay [3], the “MIC, sensitive S. aureus” value amounted to 0.5 µg/mL (≈ 0.348 µM). For the same molecule, in assay [4] (ATCC 43300), the “MIC, MRSA S. aureus” value amounted to 0.5 µg/mL (≈ 0.348 µM). Moreover, the “MIC, VanA E. faecium” value in assay [1] (ATCC BAA-2317) worked out at 250 µg/mL (≈ 174 µM). The “MIC, VanA E. faecalis” value in assay [2] (BM 4166) is 250 µg/mL (≈ 174 µM). Moreover, in assay [5] (ATCC 51299), the “MIC, VanB E. faecalis” value was determined as 8 µg/mL (≈ 5.57 µM).
Regarding `CN[C@H](CC(C)C)C(=O)N[C@H]1C(=O)N[C@@H](CC(N)=O)C(=O)N[C@H]2C(=S)NC3C(=O)N[C@H](C(=O)N[C@H](CO)c4cc(O)cc(O)c4-c4cc3ccc4O)[C@H](O)c3ccc(c(Cl)c3)Oc3cc2cc(c3OC2OC(CO)C(O)[C@H](O)[C@@H]2O[C@H]2CC(C)(N)[C@H](O)[C@H](C)O2)Oc2ccc(cc2Cl)[C@H]1O` (stereo partly shown) [Compound 24], the MIC in assay [3] is more than 32 µg/mL; in assay [4], more than 32 µg/mL; in assay [1] (read-out: MIC, VanA E. faecium), more than 32 µg/mL; in assay [2] (setting [12]), more than 32 µg/mL; in assay [5], more than 32 µg/mL.
As for `CN[C@H](CC(C)C)C(=O)N[C@H]1C(=O)N[C@@H](CC(N)=O)C(=O)N[C@H]2C(=N)NC3C(=O)N[C@H](C(=O)N[C@H](CO)c4cc(O)cc(O)c4-c4cc3ccc4O)[C@H](O)c3ccc(c(Cl)c3)Oc3cc2cc(c3OC2OC(CO)C(O)[C@H](O)[C@@H]2O[C@H]2CC(C)(N)[C@H](O)[C@H](C)O2)Oc2ccc(cc2Cl)[C@H]1O` (stereo partly shown) [Compound 25], the MIC in assay [1] (read-out: MIC, VanA E. faecium) was 2 µg/mL (≈ 1.39 µM); in assay [2] (setting [12]), 2 µg/mL (≈ 1.39 µM).
With `CN[C@H](CC(C)C)C(=O)N[C@H]1C(=O)N[C@@H](CC(N)=O)C(=O)N[C@H]2C(=O)NC3C(=O)N[C@H](C(=O)N[C@H](CO)c4cc(O)cc(O)c4-c4cc3ccc4O)[C@H](O)c3ccc(c(Cl)c3)Oc3cc2cc(c3OC2OC(CO)C(O)[C@H](O)[C@@H]2O[C@H]2CC(C)(NCc3ccc(-c4ccc(Cl)cc4)cc3)[C@H](O)[C@H](C)O2)Oc2ccc(cc2Cl)[C@H]1O` (stereo partly shown) [Compound 26], the MIC in assay [3] was found to be 0.03 µg/mL (≈ 0.0183 µM); in assay [4] it was 0.03 µg/mL (≈ 0.0183 µM); in assay [1] (read-out: MIC, VanA E. faecium) it was 4 µg/mL (≈ 2.45 µM); in assay [2] (setting [12]) it was 2 µg/mL (≈ 1.22 µM); in assay [5] it was 0.13 µg/mL (≈ 0.0795 µM).
For the molecule `CN[C@H](CC(C)C)C(=O)N[C@H]1C(=O)N[C@@H](CC(N)=O)C(=O)N[C@H]2C(=S)NC3C(=O)N[C@H](C(=O)N[C@H](CO)c4cc(O)cc(O)c4-c4cc3ccc4O)[C@H](O)c3ccc(c(Cl)c3)Oc3cc2cc(c3OC2OC(CO)C(O)[C@H](O)[C@@H]2O[C@H]2CC(C)(NCc3ccc(-c4ccc(Cl)cc4)cc3)[C@H](O)[C@H](C)O2)Oc2ccc(cc2Cl)[C@H]1O` (stereo partly shown) [Compound 27], the MIC turned out to be 4 µg/mL (≈ 2.42 µM) in assay [3]; 8 µg/mL (≈ 4.84 µM) in assay [4]; 4 µg/mL (≈ 2.42 µM) in assay [1] (read-out: MIC, VanA E. faecium); 8 µg/mL (≈ 4.84 µM) in assay [2] (setting [12]); 4 µg/mL (≈ 2.42 µM) in assay [5].
For `CN[C@H](CC(C)C)C(=O)N[C@H]1C(=O)N[C@@H](CC(N)=O)C(=O)N[C@H]2C(=N)NC3C(=O)N[C@H](C(=O)N[C@H](CO)c4cc(O)cc(O)c4-c4cc3ccc4O)[C@H](O)c3ccc(c(Cl)c3)Oc3cc2cc(c3OC2OC(CO)C(O)[C@H](O)[C@@H]2O[C@H]2CC(C)(NCc3ccc(-c4ccc(Cl)cc4)cc3)[C@H](O)[C@H](C)O2)Oc2ccc(cc2Cl)[C@H]1O` (stereo partly shown) [Compound 28], the MIC in assay [3] amounted to 0.13 µg/mL (≈ 0.0795 µM); in assay [4] it was 0.13 µg/mL (≈ 0.0795 µM); in assay [1] (read-out: MIC, VanA E. faecium) it was 0.02 µg/mL (≈ 0.0122 µM); in assay [2] (setting [12]), 0.02 µg/mL (≈ 0.0122 µM); in assay [5], 0.06 µg/mL (≈ 0.0367 µM).
Turning to “CBP-[Ψ[CH2NH]Tpg^4]vancomycin [Compound 17]”, in assay [4] (ATCC 43300), the “MIC, MRSA S. aureus” value amounted to 0.25 µg/mL. For the same molecule, the “MIC, MRSA S. aureus, serum concentration 10%” value in assay [4] (ATCC 43300, 10%) is 0.25 µg/mL. Moreover, the “MIC, MRSA S. aureus, serum concentration 25%” value in assay [4] (ATCC 43300, 25%) turned out to be 0.5 µg/mL. The “MIC, MRSA S. aureus, serum concentration 100%” value in assay [4] (ATCC 43300, 100%) is 1 µg/mL. The “MIC, VanA E. faecium” value in assay [1] (ATCC BAA-2317) is 0.06 µg/mL. The “MIC, Van A E. faecium, serum concentration 10%” value in assay [1] (ATCC BAA-2317, 10%) is 0.06 µg/mL. In addition, the “MIC, Van A E. faecium, serum concentration 25%” value in assay [1] (ATCC BAA-2317, 25%) was found to be 0.13 µg/mL. Further, the “MIC, Van A E. faecium, serum concentration 100%” value in assay [1] (ATCC BAA-2317, 100%) turned out to be 0.5 µg/mL. In assay [2] (BM 4166), the “MIC, VanA E. faecalis” value was 0.13 µg/mL. Further, the “MIC, Van A E. faecalis, serum concentration 10%” value in assay [2] (BM 4166, 10%) came out at 0.13 µg/mL. Also, the “MIC, Van A E. faecalis, serum concentration 25%” value in assay [2] (BM 4166, 25%) was 0.26 µg/mL. Besides, the “MIC, Van A E. faecalis, serum concentration 100%” value in assay [2] (BM 4166, 100%) was determined as 0.5 µg/mL. Also, in assay [5] (ATCC 51299), the “MIC, VanB E. faecalis” value came out at 0.5 µg/mL. In addition, the “MIC, Van B E. faecalis, serum concentration 10%” value in assay [5] (ATCC 51299, 10%) is 0.5 µg/mL. For the same molecule, the “MIC, Van B E. faecalis, serum concentration 25%” value in assay [5] (ATCC 51299, 25%) is 1 µg/mL. Moreover, the “MIC, Van B E. faecalis, serum concentration 100%” value in assay [5] (ATCC 51299, 100%) is 2 µg/mL. For the same molecule, in the assay with VanA VRE (relative to the analogue without CBP group), the “improvement in activity against VanA VRE on introduction of the (4-chlorobiphenyl)methyl group” value was found to be 100 fold. In addition, in the assay on VanA VRE (stated for VanA VRE), the “MIC against VanA VRE” value was 0.06 to 0.13 µg/mL.
